The values that follow come from US8530493B2, “Indolopyridines as Eg5 kinesin modulators” (4SC AG, priority 2006, dated 2013).

The test system of this test is RKO p21 uninduced (proliferating) colon adenocarcinoma cells. Nature of the test: Alamar Blue cell viability assay, RKO p21 uninduced (proliferating). Type of test: cell-based. The note with it: Homo sapiens, Table B3, anti-proliferative/cytotoxic activity, 72 hours, read-out: −log EC50 RKO p21 uninduced (proliferating) (converted). Summed up:
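RKO p21 or p27 subclones grown without Ponasterone A, i.e. proliferating, exposed 24 h after seeding to semi-log compound dilutions in DMEM/10% FCS (1% DMSO controls) for 72 h at 37° C. Alamar Blue fluorescence (544/590 nm) read relative to untreated cells; EC50 from dose-response curves, given as −log EC50 (mol/l).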
In general terms: Resazurin is reduced to fluorescent resorufin, in cell work by metabolically active cells.
Take `CCN(CCO)CCN1C(=O)N2[C@H](c3cccc(O)c3)c3[nH]c4cc(F)c(OC)cc4c3C[C@@]2(C)C1=O` (racemic) [Example 451, (3aSR,10RS)-2-{2-[Ethyl-(2-hydroxy-ethyl)-amino]-ethyl}-7-fluoro-10-(3-hydroxy-phenyl)-6-methoxy-3a-methyl-3a,4,9,10-tetrahydro-2,9,10a-triaza-cyclopenta[b]fluorene-1,3-dione]: the EC50 (commonly the concentration needed to bring the measured effect to its halfway point) is 39.8 to 251 nM. To `CCOc1ccc2[nH]c3c(c2c1)C[C@@]1(C)C(=O)N(CCN(C)CC)C(=O)N1[C@@H]3c1cccc(O)c1` (racemic) [Example 158, (3aSR,10RS)-6-Ethoxy-2-[2-(ethyl-methyl-amino)-ethyl]-10-(3-hydroxy-phenyl)-3a-methyl-3a,4,9,10-tetrahydro-2,9,10a-triaza-cyclopenta[b]fluorene-1,3-dione] belongs not above 39.8 nM. As for `CC(C)N(C)CCCN1C(=O)N2[C@H](c3cccc(O)c3)c3[nH]c4cc(F)c(Cl)cc4c3C[C@@]2(C)C1=O` (racemic) [Example 474, (3aSR,10RS)-6-Chloro-7-fluoro-10-(3-hydroxy-phenyl)-2-[3-(isopropyl-methyl-amino)-propyl]-3a-methyl-3a,4,9,10-tetrahydro-2,9,10a-triaza-cyclopenta[b]fluorene-1,3-dione], the figure is not above 39.8 nM; as for `CC(C)CNCCN1C(=O)N2[C@H](c3cccc(O)c3)c3[nH]c4cc(F)c(Cl)cc4c3C[C@@]2(C)C1=O` (racemic) [Example 340, (3aSR,10RS)-6-Chloro-7-fluoro-10-(3-hydroxy-phenyl)-2-(2-isobutylamino-ethyl)-3a-methyl-3a,4,9,10-tetrahydro-2,9,10a-triaza-cyclopenta[b]fluorene-1,3-dione], 39.8 to 251 nM; as for `CC(C)NCCN1C(=O)N2[C@H](c3cccc(O)c3)c3[nH]c4ccc(Br)cc4c3C[C@@]2(C)C1=O` (racemic) [Example 233, (3aSR,10RS)-6-Bromo-10-(3-hydroxy-phenyl)-2-(2-ispropylamino-ethyl)-3a-methyl-3a,4,9,10-tetrahydro-2,9,10a-triaza-cyclopenta[b]fluorene-1,3-dione], not above 39.8 nM. Turning to `C[C@@]12Cc3c([nH]c4ccc(Cl)cc34)[C@@H](c3cccc(O)c3)N1C(=O)N(CCCN1CCCCC1)C2=O` (racemic) [Example 181, (3aSR,10RS)-6-Chloro-10-(3-hydroxy-phenyl)-3a-methyl-2-(3-piperidin-1-yl-propyl)-3a,4,9,10-tetrahydro-2,9,10a-triaza-cyclopenta[b]fluorene-1,3-dione], the concentration for a half-maximal effect (EC50) was not above 39.8 nM.

For the molecule `C=CCN(C)CCCN1C(=O)N2[C@H](c3cccc(O)c3)c3[nH]c4ccc(OCC)cc4c3C[C@@]2(C)C1=O` (racemic) [Example 196, (3aSR,10RS)-2-[3-(Allyl-methyl-amino)-propyl]-6-ethoxy-10-(3-hydroyx-phenyl)-3a-methyl-3a,4,9,10-tetrahydro-2,9,10a-triaza-cyclopenta[b]fluorene-1,3-dione], the EC50 is 39.8 to 251 nM. In the case of `C[C@@]12Cc3c([nH]c4ccc(OC(F)F)cc34)[C@@H](c3cccc(O)c3)N1C(=O)N(CCCN1CCCCCC1)C2=O` (racemic) [Example 243, (3aSR,10RS)-2-(3-Azepan-1-yl-propyl)-6-(1,1-difluoro-methoxy)-10-(3-hydroxy-phenyl)-3a-methyl-3a,4,9,10-tetrahydro-2,9,10a-triaza-cyclopenta[b]fluorene-1,3-dione], the EC50 is not above 39.8 nM. In the case of `C=CCN(C)CCCN1C(=O)N2[C@H](c3cccc(O)c3)c3[nH]c4ccc(Br)cc4c3C[C@@]2(C)C1=O` (racemic) [Example 371, (3aSR,10RS)-2-[3-(Allyl-methyl-amino)-propyl]-6-bromo-10-(3-hydroxy-phenyl)-3a-methyl-3a,4,9,10-tetrahydro-2,9,10a-triaza-cyclopenta[b]fluorene-1,3-dione], the half-maximal effective concentration (EC50) is not above 39.8 nM. On to `CCN(CCCN1C(=O)N2[C@H](c3cccc(O)c3)c3[nH]c4ccc(OC)cc4c3C[C@@]2(C)C1=O)CCOC` [Example 544, (3aS,10R)-2-{3-[Ethyl-(2-methoxy-ethyl)-amino]-propyl}-10-(3-hydroxy-phenyl)-6-methoxy-3a-methyl-3a,4,9,10-tetrahydro-2,9,10a-triaza-cyclopenta[b]fluorene-1,3-dione], for which the EC50 was not above 39.8 nM. For `CN1CCN(CCN2C(=O)N3[C@H](c4cccc(O)c4)c4[nH]c5ccc(OC(F)F)cc5c4C[C@@]3(C)C2=O)CC1` (racemic) [Example 294, (3aSR,10RS)-6-(1,1-Difluoro-methoxy)-10-(3-hydroxy-phenyl)-3a-methyl-2-[2-(4-methyl-piperazin-1-yl)-ethyl}-3a,4,9,10-tetrahydro-2,9,10a-triaza-cyclopenta[b]fluorene-1,3-dione], the EC50 is 39.8 to 251 nM. To `COc1ccc2[nH]c3c(c2c1F)C[C@@]1(C)C(=O)N(CCNC(C)C)C(=O)N1[C@@H]3c1cccc(O)c1` (racemic) [Example 408, (3aSR,10RS)-5-Fluoro-10-(3-hydroxy-phenyl)-2-{2-isopropylamino-ethyl)-6-methoxy-3a-methyl-3a,4,9,10-tetrahydro-2,9,10a-triaza-cyclopenta[b]fluorene-1,3-dione] belongs 39.8 to 251 nM; to `CCN(CCO)CCCN1C(=O)N2[C@H](c3cccc(O)c3)c3[nH]c4cc(F)c(Cl)cc4c3C[C@@]2(C)C1=O` (racemic) [Example 470, (3aSR,10RS)-6-Chloro-2-{3-[ethyl-(2-hydroxy-ethyl)-amino]-propyl}-7-fluoro-10-(3-hydroxy-phenyl)-3a-methyl-3a,4,9,10-tetrahydro-2,9,10a-triaza-cyclopenta[b]fluorene-1,3-dione], not above 39.8 nM; to `COc1ccc2[nH]c3c(c2c1F)C[C@@]1(C)C(=O)N(CCNCC2CC2)C(=O)N1[C@@H]3c1cccc(O)c1` (racemic) [Example 410, (3aSR,10RS)-2-[2-(Cyclopropylmethyl-amino)-ethyl]-5-fluoro-10-(3-hydroxy-phenyl)-6-methoxy-3a-methyl-3a,4,9,10-tetrahydro-2,9,10a-triaza-cyclopenta[b]fluorene-1,3-dione], 39.8 to 251 nM. To `CCN(CC)CCN1C(=O)N2[C@H](c3cccc(O)c3)c3[nH]c4ccc(OC(F)F)cc4c3C[C@@]2(C)C1=O` (racemic) [Example 276, (3aSR,10RS)-2-(2-Diethylamino-ethyl)-6-(1,1-difluoro-methoxy)-10-(3-hydroxy-phenyl)-3a-methyl-3a,4,9,10-tetrahydro-2,9,10a-triaza-cyclopenta[b]fluorene-1,3-dione] belongs not above 39.8 nM; to `C[C@@]12Cc3c([nH]c4cc(F)c(Cl)cc34)[C@@H](c3cccc(O)c3)N1C(=O)N(CCCN1CCCCC1)C2=O` (racemic) [Example 478, (3aSR,10RS)-6-Chloro-7-fluoro-10-(3-hydroxy-phenyl)-3a-methyl-2-(3-piperidin-1-yl-propyl)-3a,4,9,10-tetrahydro-2,9,10a-triaza-cyclopenta[b]fluorene-1,3-dione], not above 39.8 nM. As for `CCOc1ccc2[nH]c3c(c2c1)C[C@@]1(C)C(=O)N(CCNC(C)(C)C)C(=O)N1[C@@H]3c1cccc(O)c1` (racemic) [Example 156, (3aSR,10RS)-2-(2-tert-Butylamino-ethyl)-6-ethoxy-10-(3-hydroxy-phenyl)-3a-methyl-3a,4,9,10-tetrahydro-2,9,10a-triaza-cyclopenta[b]fluorene-1,3-dione], the figure is not above 39.8 nM; as for `C[C@@]12Cc3c([nH]c4ccc(Br)cc34)[C@@H](c3cccc(O)c3)N1C(=O)N(CCCN1CCCCC1)C2=O` (racemic) [Example 373, (3aSR,10RS)-6-Bromo-10-(3-hydroxy-phenyl)-3a-methyl-2-(3-piperidin-1-yl-propyl)-3a,4,9,10-tetrahydro-2,9,10a-triaza-cyclopenta[b]fluorene-1,3-dione], not above 39.8 nM; as for `C[C@@]12Cc3c([nH]c4cc(F)c(Cl)cc34)[C@@H](c3cccc(O)c3)N1C(=O)N(CCCNCC1CC1)C2=O` (racemic) [Example 460, (3aSR,10RS)-6-Chloro-2-[3-(cyclopropylmethyl-amino)-propyl]-7-fluoro-10-(3-hydroxy-phenyl)-3a-methyl-3a,4,9,10-tetrahydro-2,9,10a-triaza-cyclopenta[b]fluorene-1,3-dione], 39.8 to 251 nM. Consider `C[C@@]12Cc3c([nH]c4cc(F)c(Cl)cc34)[C@@H](c3cccc(O)c3)N1C(=O)N(CCCNCCO)C2=O` (racemic) [Example 461, (3aSR,10RS)-6-Chloro-7-fluoro-2-[3-(2-hydroxy-ethylamino)-propyl]-10-(3-hydroxy-phenyl)-3a-methyl-3a,4,9,10-tetrahydro-2,9,10a-triaza-cyclopenta[b]fluorene-1,3-dione], for which the half-maximal effective concentration (EC50) is 39.8 to 251 nM. Take `C=CCNCCCN1C(=O)N2[C@H](c3cccc(O)c3)c3[nH]c4ccc(OC)cc4c3C[C@@]2(C)C1=O` [Example 533, (3aS,10R)-2-(3-Allylamino-propyl)-10-(3-hydroxy-phenyl)-6-methoxy-3a-methyl-3a,4,9,10-tetrahydro-2,9,10a-triaza-cyclopenta[b]fluorene-1,3-dione]: the EC50 is not above 39.8 nM. To `COc1cc2c3c([nH]c2cc1F)[C@@H](c1cccc(O)c1)N1C(=O)N(CCCNC(C)(C)C)C(=O)[C@]1(C)C3` (racemic) [Example 308, (3aSR,10RS)-2-(3-tert-Butylamino-propyl)-7-fluoro-10-(3-hydroxy-phenyl)-6-methoxy-3a-methyl-3a,4,9,10-tetrahydro-2,9,10a-triaza-cyclopenta[b]fluorene-1,3-dione] belongs 39.8 to 251 nM; to `CNCCN1C(=O)N2[C@H](c3cccc(O)c3)c3[nH]c4ccc(Br)cc4c3C[C@@]2(C)C1=O` (racemic) [Example 394, (3aSR,10RS)-6-Bromo-10-(3-hydroxy-phenyl)-3a-methyl-2-(2-methylamino-ethyl)-3a,4,9,10-tetrahydro-2,9,10a-triaza-cyclopenta[b]fluorene-1,3-dione], not above 39.8 nM.
